Laboratory results taken from article PMC9673804, “Design, synthesis and antitumor evaluation of novel pyrazolo[3,4-d]pyrimidines incorporating different amino acid conjugates as potential DHFR inhibitors” (Journal of Enzyme Inhibition and Medicinal Chemistry, 2022).
“And” between values parts separate entries of the source, which are not always exact repeats. Equal values may be shown once. “Also recorded” adds a separate entry of the source.

Experiments:
Bax = assay: Western blot of Bax expression in MCF-7; type: cell-based, human
Protocol: (§1) The effect of compound 7f on the expression of DHFR, Casp3, Bax, and Bcl-2 proteins in MCF-7 cancer cells was evaluated by western blotting as previously performed. The cancer cells treated or untreated were collected were harvested and blotted on SDS-polyacrylamide gel and separated by Cleaver electrophoresis unit (Cleaver, UK), transferred onto polyvinylidene fluoride (PVDF) membranes (Millipore, USA) for 30 min using a Semi-dry Electroblotter (Biorad, USA) at 2.5 A and 25 V for 30 min. […] After washing, the chemiluminescent Western ECL substrate (Perkin Elmer, Waltham, MA, USA) was applied to the blot and then incubated for 1 min with a mixture of equal volumes from ECL solution A and ECL solution B. The chemiluminescent signals were captured using a CCD camera-based imager (Chemi Doc imager, Biorad, USA), and the bands intensities were then measured by Image J software program. […] For colorimetric assays two-way ANOVA test followed by Bonferroni posttest were used, while for quantification expression on western blot, student-t-test was used (significance p < 0.05). […]
(§2) Sodium dodecyl sulfate polyacrylamide gel electrophoresis (SDS-PAGE) is used to separate proteins based on their size. […] The secondary antibody is typically linked to an enzyme that produces luminescence upon the reaction with its substrate. […]

human DHFR enzyme = target: T1, human DHFR enzyme (Homo sapiens, UniProt P00374); assay: Elisa assay of human DHFR enzyme; type: biochemical
T1 construct: purchased MyBioSource MBS9312476
T1 sequence (P00374 1-187): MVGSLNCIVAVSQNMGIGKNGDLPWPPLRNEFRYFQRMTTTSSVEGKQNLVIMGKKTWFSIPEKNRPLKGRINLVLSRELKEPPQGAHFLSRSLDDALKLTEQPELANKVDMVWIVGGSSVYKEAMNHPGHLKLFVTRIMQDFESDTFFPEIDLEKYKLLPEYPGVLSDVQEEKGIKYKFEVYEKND
Protocol: Enzyme-linked immunosorbent assay (ELISA) assay technique was used to evaluate the anti-DHFR effects of all the synthesised compounds on as described previously. The DHFR ELISA kit (MyBioSource, MBS9312476 San Diego, CA, USA) was used according to the manufacturer instructions. […] The test was repeated in triplicate, and the significance was assessed by one-way ANOVA test followed by Tukey’s posttest, where p < 0.05 was considered significance.

[1] = system: MCF-7 breast cancer cell line; assay: Flow cytometric cell cycle analysis; type: cell-based, human
From the text: Clearly, compound 7f enhanced the accumulation proportion of cells at the pre-G1 phase from 2.19 to 41.36%, and the accumulation percentages in S phase from 31.87 to 46.36%. […] Figure 8).

caspase 3 = assay: Western blot of caspase-3 expression in MCF-7; type: cell-based, human
Protocol: as §1, §2

[2] = system: colorectal carcinoma (HCT-116); assay: SRB cytotoxicity assay, HCT-116; type: cell-based; details: Homo sapiens, HCT-116 cells
Protocol: (§3) The SRB colorimetric assay was employed to assess the synthesized compounds’ cytotoxic effects on several cancer cell lines (Table 1)[11–14]. […] Furthermore, the effect of tested compounds was evaluated on the normal immortalized HPDE cell line.
(§4) Sulforhodamine B (SRB) assay was employed to assay in-vitro antitumor activities of all the synthesised compounds as describer previously. […] The cell lines were obtained from the American Type Culture Collection (Rockville, USA).

[3] = system: human prostate cancer (PC-3); assay: SRB cytotoxicity assay, PC-3; type: cell-based; details: PC-3 cells
Protocol: as §3, §4

DHFR = assay: Western blot of DHFR expression in MCF-7; type: cell-based, human
Protocol: as §1, §2

N=C(N)NCCCC(NC(=O)c1ccc(Nc2ncnc3c2cnn3-c2ccccc2)cc1)C(=O)O (stereo not drawn) [Compound 7f, 5-Guanidino-2-{4-[(1-phenyl-1H-pyrazolo[3,4-d]pyrimidin-4-yl)amino]benzamido}pentanoic acid]
western blotting OD Bax (Bax; MCF7 cells, Cont.MCF7 0.152): 0.346 OD
expression of Bax (western blot) (Bax; MCF-7): significantly increased the expression
IC50 (human DHFR enzyme; DHFR ELISA kit, triplicate): < 1 µM and 0.31 µM
inhibition at 0.1 µM (human DHFR enzyme; conc 0.1 uM): 44%
inhibition at 1 µM (human DHFR enzyme; conc 1 uM): 66%
inhibition at 10 µM (human DHFR enzyme; conc 10 uM): 86%
inhibition at 100 µM (human DHFR enzyme; conc 100 uM): 94%
Comment (cell cycle arrest) ([1]; MCF-7 cells): arrested cell cycle at S phase; also recorded: Cell growth arrest at S
%Pre-G1 ([1]; MCF-7 cells treated with the compound, control 2.19): 41.36%
%G2/M ([1]; MCF-7 cells treated with the compound, control 12.01): 1.5%
%S ([1]; MCF-7 cells treated with the compound, control 31.87): 46.39%
%G0-G1 ([1]; MCF-7 cells treated with the compound, control 56.12): 52.11%
western blotting OD Casp3 (caspase 3; MCF7 cells, Cont.MCF7 0.171): 0.575 OD
expression of caspase 3 (western blot) (caspase 3; MCF-7): significantly increased the expression
IC50 [2]: 5.48 ± 0.04 µM
IC50 [3]: 6.29 ± 0.56 µM
western blotting OD DHFR (DHFR; MCF7 cells, Cont.MCF7 0.808): 0.346 OD
DHFR expression (western blot) (DHFR; MCF-7 cancer cell line): significantly diminished the DHFR expression
